# ChEMBL document CHEMBL1833895, “Synthesis and biological activity of desmethoxy analogues of coruscanone A” (Bioorg Med Chem Lett, 2011)
# Key:
# Nakaseomyces glabratus [1] = test: Antifungal activity against Candida glabrata 20/I after 24 hrs by microdilution method; assay type: functional
# Candida tropicalis [2] = test: Antifungal activity against Candida tropicalis 156 after 48 hrs by microdilution method; assay type: functional; settings: Candida tropicalis, 156, 48 h
# [3] = tested on: Trichophyton mentagrophytes; test: Antifungal activity against Trichophyton mentagrophytes 445 after 72 hrs by microdilution method; assay type: functional, organism-based; settings: Trichophyton mentagrophytes, 445, 72 h
# Lichtheimia corymbifera [4] = test: Antifungal activity against Absidia corymbifera 272 after 48 hrs by microdilution method; assay type: functional, organism-based; settings: Lichtheimia corymbifera, 272, 48 h
# HL-60 = test: Cytostatic activity against human HL60 cells at 10 umol/L after 72 hrs by XTT assay; assay type: ADME, cell-based; settings: hl-60, 72 h, 10 µM
# [5] = Cytostatic activity against human HeLaS3 cells after 48 hrs by XTT assay; assay type: ADME, cell-based; settings: HeLa S3, 48 h
# Candida albicans [6] = test: Antifungal activity against Candida albicans ATCC 44859 after 24 hrs by microdilution method; assay type: functional; settings: ATCC 44859, 24 h
# Candida albicans [7] = test: Antifungal activity against Candida albicans ATCC 44859 after 48 hrs by microdilution method; assay type: functional; settings: ATCC 44859, 48 h
# Pichia kudriavzevii [8] = test: Antifungal activity against Candida krusei ATCC 6258 after 48 hrs by microdilution method; assay type: functional; settings: ATCC 6258, 48 h
# Pichia kudriavzevii [9] = test: Antifungal activity against Candida krusei E28 after 48 hrs by microdilution method; assay type: functional; settings: E28, 48 h
# Candida tropicalis [10] = test: Antifungal activity against Candida tropicalis 156 after 24 hrs by microdilution method; assay type: functional; settings: Candida tropicalis, 156, 24 h
# HT-29 = test: Cytostatic activity against human HT-29 cells at 10 umol/L after 72 hrs by XTT assay; assay type: ADME, cell-based; settings: ht-29, 72 h, 10 µM
# Candida parapsilosis [11] = test: Antifungal activity against Candida parapsilosis ATCC 22019 after 48 hrs by microdilution method; assay type: functional; settings: Lodderomyces parapsilosis, ATCC 22019, 48 h
# Candida albicans [12] = test: Antifungal activity against Candida albicans ATCC 90028 after 24 hrs by microdilution method; assay type: functional; settings: ATCC 90028, 24 h
# Lichtheimia corymbifera [13] = test: Antifungal activity against Absidia corymbifera 272 after 24 hrs by microdilution method; assay type: functional, organism-based; settings: Lichtheimia corymbifera, 272, 24 h
# Pichia kudriavzevii [14] = test: Antifungal activity against Candida krusei ATCC 6258 after 24 hrs by microdilution method; assay type: functional; settings: ATCC 6258, 24 h
# Candida albicans [15] = test: Antifungal activity against Candida albicans ATCC 90028 after 48 hrs by microdilution method; assay type: functional; settings: ATCC 90028, 48 h
# Clavispora lusitaniae [16] = test: Antifungal activity against Candida lusitaniae 2446/I after 24 hrs by microdilution method; assay type: functional
# Candida parapsilosis [17] = test: Antifungal activity against Candida parapsilosis ATCC 22019 after 24 hrs by microdilution method; assay type: functional; settings: Lodderomyces parapsilosis, ATCC 22019, 24 h
# Trichosporon asahii [18] = test: Antifungal activity against Trichosporon asahii 1188 after 24 hrs by microdilution method; assay type: functional; settings: Trichosporon asahii, 1188, 24 h
# Aspergillus fumigatus [19] = test: Antifungal activity against Aspergillus fumigatus 231 after 24 hrs by microdilution method; assay type: functional, organism-based; settings: Aspergillus fumigatus, 231, 24 h
# Trichosporon asahii [20] = test: Antifungal activity against Trichosporon asahii 1188 after 48 hrs by microdilution method; assay type: functional; settings: Trichosporon asahii, 1188, 48 h
# [21] = Cytostatic activity against human COLO201 cells at 10 umol/L after 72 hrs by XTT assay; assay type: ADME, cell-based; settings: colo 201, 72 h, 10 µM
# CCRF-CEM [22] = test: Cytostatic activity against human CCRF-CEM cells at 10 umol/L after 72 hrs by XTT assay; assay type: ADME, cell-based; settings: 10 µM
# Pichia kudriavzevii [23] = test: Antifungal activity against Candida krusei E28 after 24 hrs by microdilution method; assay type: functional; settings: E28, 24 h
# L1210 = test: Cytostatic activity against mouse L1210 cells at 10 umol/L after 72 hrs by XTT assay; assay type: ADME, cell-based; settings: l1210, 72 h, 10 µM
# Aspergillus fumigatus [24] = test: Antifungal activity against Aspergillus fumigatus 231 after 48 hrs by microdilution method; assay type: functional, organism-based; settings: Aspergillus fumigatus, 231, 48 h
# Nakaseomyces glabratus [25] = test: Antifungal activity against Candida glabrata 20/I after 48 hrs by microdilution method; assay type: functional
# Clavispora lusitaniae [26] = test: Antifungal activity against Candida lusitaniae 2446/I after 48 hrs by microdilution method; assay type: functional
# [27] = tested on: Trichophyton mentagrophytes; test: Antifungal activity against Trichophyton mentagrophytes 445 after 120 hrs by microdilution method; assay type: functional, organism-based; settings: Trichophyton mentagrophytes, 445, 120 h
# [28] = Cytostatic activity against human HeLaS3 cells at 10 umol/L after 48 hrs by XTT assay; assay type: ADME, cell-based; settings: hela s3, 48 h, 10 µM
# [29] = Cytostatic activity against human COLO201 cells after 72 hrs by XTT assay; assay type: ADME, cell-based; settings: COLO 201, 72 h
# CCRF-CEM [30] = test: Cytostatic activity against human CCRF-CEM cells after 72 hrs by XTT assay; assay type: ADME, cell-based
SMILES,IC80 (Nakaseomyces glabratus [1]) [µM],IC80 (Candida tropicalis [2]) [µM],IC80 [3] [µM],IC80 (Lichtheimia corymbifera [4]) [µM],Activity (HL-60),IC80 (Candida albicans [6]) [µM],IC80 (Candida albicans [7]) [µM],IC80 (Pichia kudriavzevii [8]) [µM],IC80 (Pichia kudriavzevii [9]) [µM],IC80 (Candida tropicalis [10]) [µM],Activity (HT-29),IC80 (Candida parapsilosis [11]) [µM],IC80 (Candida albicans [12]) [µM],IC80 (Lichtheimia corymbifera [13]) [µM],IC80 (Pichia kudriavzevii [14]) [µM],IC80 (Candida albicans [15]) [µM],IC80 (Clavispora lusitaniae [16]) [µM],IC80 (Candida parapsilosis [17]) [µM],IC80 (Trichosporon asahii [18]) [µM],IC80 (Aspergillus fumigatus [19]) [µM],other results
Cc1ccc(/C=C/C=C2C(=O)C=CC2=O)cc1,31.2,7.81,125,> 125,Non-toxic,3.9,7.81,15.6,15.6,7.81,Non-toxic,31.2,7.81,> 125,7.81,7.81,7.81,7.81,31.2,62.5,IC50 [5]: 7.3 µM; IC80 (Trichosporon asahii [20]): > 125 µM; Activity [21]: Non-toxic; Activity (CCRF-CEM [22]): Non-toxic; IC80 (Pichia kudriavzevii [23]): 7.81 µM; Activity (L1210): Non-toxic; IC80 (Aspergillus fumigatus [24]): > 125 µM; IC80 (Nakaseomyces glabratus [25]): 31.2 µM; IC80 (Clavispora lusitaniae [26]): 15.6 µM; IC50 [27]: > 125 µM
O=C1C=CC(=O)C1=C/C=C/c1ccc(Cl)cc1,62.5,62.5,62.5,> 250,Non-toxic,62.5,62.5,62.5,62.5,62.5,Non-toxic,62.5,62.5,> 250,62.5,62.5,62.5,62.5,62.5,62.5,Activity [28]: Non-toxic; IC80 (Trichosporon asahii [20]): 125 µM; Activity [21]: Non-toxic; Activity (CCRF-CEM [22]): Non-toxic; IC80 (Pichia kudriavzevii [23]): 62.5 µM; Activity (L1210): Non-toxic; IC80 (Aspergillus fumigatus [24]): 125 µM; IC80 (Nakaseomyces glabratus [25]): 62.5 µM; IC80 (Clavispora lusitaniae [26]): 62.5 µM; IC50 [27]: 250 µM
CN(C)c1ccc(C=C2C(=O)C=CC2=O)cc1,62.5,> 125,0.98,> 125,Non-toxic,31.2,31.2,7.81,7.81,62.5,Non-toxic,7.81,31.2,> 125,7.81,62.5,7.81,3.9,7.81,15.6,Activity [28]: Non-toxic; IC50 [29]: 1.3 µM; IC80 (Trichosporon asahii [20]): 15.6 µM; IC50 (CCRF-CEM [30]): 4.3 µM; IC80 (Pichia kudriavzevii [23]): 7.81 µM; Activity (L1210): Non-toxic; IC80 (Aspergillus fumigatus [24]): 31.2 µM; IC80 (Nakaseomyces glabratus [25]): > 125 µM; IC80 (Clavispora lusitaniae [26]): 31.2 µM; IC50 [27]: 0.98 µM
